According to patent publication US9127001B2, “Substituted 4,5,6,7-tetrahydro-1H-pyrazolo[4,3-c]pyridines, their use as medicament, and pharmaceutical preparations comprising them” (Sanofi, priority 2011, dated 2015):

Legend:
[1] = tested on: left atrium of the anesthetized pig; assay: Refractory period and left-atrial vulnerability in the anesthetized pig; assay type: in vivo; conditions: bolus 1 mg/kg, mean value n = 3
Procedure: Investigation of the Refractory Period and the Left-Atrial Vulnerability in the Pig
The compounds were tested for prolongation of the refractory period and antiarrhythmic activity on the atrium of the anesthetized pig as described in the literature (Knobloch et al. 2002. Naunyn-Schmiedberg's Arch. Pharmacol. 366; 482-487). Here the anti-arrhythmic action relates to the inhibition of the occurrence of episodes of arrhythmias which are induced by a prematurely placed extra-stimulus (S2) in the left atrium (=left-atrial vulnerability). The refractory period values are stated in percent of the basal values 15 minutes after injection. Mean values for the refractory periods are shown from three rates (150, 200 and 250/min).
The action of 3-[5-Acetyl-1-(2,4-difluoro-benzyl)-4,5,6,7-tetrahydro-1H-pyrazolo[4,3-c]pyridin-3-yl]-benzonitrile (6a) on the refractory period of the left atrium and antiarrhythmic activity in the anesthetized pig after a bolus administration of 1 mg/kg is shown in table 1. From the results shown in table 1, it is seen that it was possible to prevent 61% of the induced arrhythmias.

Human TASK-1 channels = Human TASK-1 channels (Homo sapiens (Human), UniProt O14649); assay: Activity on the TASK-1 channel in Xenopus oocytes (two-microelectrode voltage clamp); assay type: cell-based; conditions: for IC50: human TASK-1 expressed in Xenopus oocytes, currents during pulses to 40 mV, room temperature
Sequence of Human TASK-1 channels (O14649 whole entry, the tested form may be a part): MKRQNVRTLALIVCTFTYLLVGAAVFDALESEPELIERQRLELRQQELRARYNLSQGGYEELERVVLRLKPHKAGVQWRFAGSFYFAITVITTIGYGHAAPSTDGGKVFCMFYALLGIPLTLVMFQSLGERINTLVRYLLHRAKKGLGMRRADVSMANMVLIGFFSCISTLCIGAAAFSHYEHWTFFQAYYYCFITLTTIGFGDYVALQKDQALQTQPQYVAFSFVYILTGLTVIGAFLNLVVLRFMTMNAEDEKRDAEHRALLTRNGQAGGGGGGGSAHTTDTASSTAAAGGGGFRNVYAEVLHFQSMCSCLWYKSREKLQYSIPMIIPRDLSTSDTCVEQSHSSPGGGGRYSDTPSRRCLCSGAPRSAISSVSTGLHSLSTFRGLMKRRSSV
Method in brief: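 Human TASK-1 was expressed in defolliculated Xenopus laevis oocytes by in vitro-synthesised RNA injection and recorded by two-microelectrode voltage clamp. Oocytes were superfused with ND96 (pH 7.4) at room temperature, with compound added at rising concentrations. IC50 came from a general dose-response fit.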

In the case of CC(=O)N1CCc2c(c(-c3cccc(C#N)c3)nn2Cc2ccc(F)cc2F)C1 [Example 6a, 3-[5-Acetyl-1-(2,4-difluoro-benzyl)-4,5,6,7-tetrahydro-1H-pyrazolo[4,3-c]pyridin-3-yl]-benzonitrile], the “% inhibition of the arrhythmias” value ([1]; S2-induced arrhythmias, 3 measurements before vs. 3 during first hour after administration) is reported as 61%, the “% increase in the refractory period” value ([1]; left atrium, 15 minutes after injection, mean of three rates (150, 200 and 250/min)) is reported as 14% and the IC50 (Human TASK-1 channels) is reported as 95 nM.
For CNC(=O)N1CCc2c(c(-c3cccc(C#N)c3)nn2Cc2ccc(F)cc2F)C1 [Example 12a, 3-(3-Cyano-phenyl)-1-(2,4-difluoro-benzyl)-1,4,6,7-tetrahydro-pyrazolo[4,3-c]pyridine-5-carboxylic acid methylamide], the IC50 (Human TASK-1 channels) was 380 nM.
For CN(C)C(=O)N1CCc2c(c(-c3cccc(C#N)c3)nn2Cc2ccc(F)cc2F)C1 [Example 12d, 3-(3-Cyano-phenyl)-1-(2,4-difluoro-benzyl)-1,4,6,7-tetrahydro-pyrazolo[4,3-c]pyridine-5-carboxylic acid dimethylamide], the inhibition at 5 µM (Human TASK-1 channels) was 74%.
CN(CCO)C(=O)N1CCc2c(c(-c3cccc(C#N)c3)nn2Cc2ccc(F)cc2F)C1 [Example 12e, 3-(3-Cyano-phenyl)-1-(2,4-difluoro-benzyl)-1,4,6,7-tetrahydro-pyrazolo[4,3-c]pyridine-5-carboxylic acid (2-hydroxy-ethyl)-methyl-amide] gave an inhibition at 5 µM (Human TASK-1 channels) of 65%.
Work on CC(=O)N1CCc2c(c(-c3cc(C#N)ccn3)nn2Cc2ccc(F)cc2F)C1 [Example 13a, 2-[5-Acetyl-1-(2,4-difluoro-benzyl)-4,5,6,7-tetrahydro-1H-pyrazolo[4,3-c]pyridin-3-yl]-isonicotinonitrile] yielded an IC50 (Human TASK-1 channels) of 422 nM.
Work on CC(=O)N1CCc2c(c(-c3cccc(C#N)n3)nn2Cc2ccc(F)cc2F)C1 [Example 13b, 6-[5-Acetyl-1-(2,4-difluoro-benzyl)-4,5,6,7-tetrahydro-1H-pyrazolo[4,3-c]pyridin-3-yl]-pyridine-2-carbonitrile] yielded an IC50 (Human TASK-1 channels) of 462 nM.
Molecule N#Cc1cccc(-c2nn(Cc3ccc(F)cc3F)c3c2CN(C(=O)CO)CC3)c1 [Example 14a, 3-[1-(2,4-Difluoro-benzyl)-5-(2-hydroxy-acetyl)-4,5,6,7-tetrahydro-1H-pyrazolo[4,3-c]pyridin-3-yl]-benzonitrile] has an IC50 (Human TASK-1 channels) of under 10000 nM.
